Results as given in ChEMBL document CHEMBL6153174, “Design and Synthesis of Novel Deazapurine DNMT 1 Inhibitors with In Vivo Efficacy in DLBCL” (J Med Chem, 2025).

Legend:
[1] = system: U-937; test: Antiproliferative activity against human U-937 cells assessed as inhibition of cell viability measured after 72 hrs by MTT assay; assay type: functional, cell-based; settings: U-937, 72 h
[2] = target: T1, Histone-lysine N-methyltransferase EHMT2 (Homo sapiens) (UniProt Q96KQ7); test: Inhibition of G9a (unknown origin) at 5 uM preincubated for 15 mins followed by substrate and [3H-SAM] addition and measured after 60 mins by microbeta analysis relative to control; settings: time 75.0 min
T1 sequence (whole entry): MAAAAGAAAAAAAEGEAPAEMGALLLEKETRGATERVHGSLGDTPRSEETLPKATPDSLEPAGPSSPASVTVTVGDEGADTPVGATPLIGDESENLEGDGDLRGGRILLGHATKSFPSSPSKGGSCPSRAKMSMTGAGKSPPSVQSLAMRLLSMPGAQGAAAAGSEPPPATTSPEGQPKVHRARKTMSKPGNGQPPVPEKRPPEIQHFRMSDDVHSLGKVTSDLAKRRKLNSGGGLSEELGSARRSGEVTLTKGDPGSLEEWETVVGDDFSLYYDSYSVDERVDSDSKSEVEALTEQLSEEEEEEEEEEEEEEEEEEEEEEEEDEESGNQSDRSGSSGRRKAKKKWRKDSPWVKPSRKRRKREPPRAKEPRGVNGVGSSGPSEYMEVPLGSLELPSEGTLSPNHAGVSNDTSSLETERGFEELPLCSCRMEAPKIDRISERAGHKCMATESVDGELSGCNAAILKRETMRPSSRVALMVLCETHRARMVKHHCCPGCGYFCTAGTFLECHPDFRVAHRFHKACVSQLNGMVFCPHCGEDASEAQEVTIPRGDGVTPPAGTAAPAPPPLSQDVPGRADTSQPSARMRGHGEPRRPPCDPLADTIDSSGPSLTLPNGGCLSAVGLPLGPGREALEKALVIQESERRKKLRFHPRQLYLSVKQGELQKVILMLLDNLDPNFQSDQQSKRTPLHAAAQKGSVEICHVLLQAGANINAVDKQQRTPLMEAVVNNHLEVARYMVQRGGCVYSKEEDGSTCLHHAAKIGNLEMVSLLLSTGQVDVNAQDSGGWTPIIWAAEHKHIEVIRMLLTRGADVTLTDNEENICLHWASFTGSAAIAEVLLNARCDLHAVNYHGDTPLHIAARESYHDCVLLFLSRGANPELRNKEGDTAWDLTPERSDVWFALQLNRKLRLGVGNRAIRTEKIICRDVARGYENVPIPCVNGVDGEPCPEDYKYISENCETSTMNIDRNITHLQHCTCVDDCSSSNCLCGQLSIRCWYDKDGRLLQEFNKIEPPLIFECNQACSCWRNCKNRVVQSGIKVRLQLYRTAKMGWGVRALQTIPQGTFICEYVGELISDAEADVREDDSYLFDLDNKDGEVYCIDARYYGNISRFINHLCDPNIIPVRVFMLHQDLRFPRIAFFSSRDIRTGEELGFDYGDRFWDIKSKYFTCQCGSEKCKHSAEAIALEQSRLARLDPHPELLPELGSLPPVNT

[3] = system: MV4-11; test: Antiproliferative activity against human MV4-11 cells assessed as inhibition of cell viability measured after 72 hrs by MTT assay; assay type: functional, cell-based; settings: MV4-11, 72 h
[4] = target: DNA (cytosine-5)-methyltransferase 1 (Homo sapiens, UniProt P26358); test: Inhibition of DNMT1 (unknown origin) at 5 uM preincubated for 15 mins followed by substrate and [3H-SAM] addition and measured after 60 mins by microbeta analysis relative to control; settings: time 75.0 min
[5] = target: DNA (cytosine-5)-methyltransferase 3B (Homo sapiens, UniProt Q9UBC3); test: Inhibition of DNMT3B (unknown origin) at 5 uM preincubated for 15 mins followed by substrate and [3H-SAM] addition and measured after 60 mins by microbeta analysis relative to control; settings: time 75.0 min
[6] = target: DNA (cytosine-5)-methyltransferase 3A (Homo sapiens, UniProt Q9Y6K1); test: Inhibition of DNMT3A (unknown origin) at 5 uM preincubated for 15 mins followed by substrate and [3H-SAM] addition and measured after 60 mins by microbeta analysis relative to control; settings: time 75.0 min
DNA (cytosine-5)-methyltransferase 3A, sequence (Q9Y6K1 whole entry, looked up): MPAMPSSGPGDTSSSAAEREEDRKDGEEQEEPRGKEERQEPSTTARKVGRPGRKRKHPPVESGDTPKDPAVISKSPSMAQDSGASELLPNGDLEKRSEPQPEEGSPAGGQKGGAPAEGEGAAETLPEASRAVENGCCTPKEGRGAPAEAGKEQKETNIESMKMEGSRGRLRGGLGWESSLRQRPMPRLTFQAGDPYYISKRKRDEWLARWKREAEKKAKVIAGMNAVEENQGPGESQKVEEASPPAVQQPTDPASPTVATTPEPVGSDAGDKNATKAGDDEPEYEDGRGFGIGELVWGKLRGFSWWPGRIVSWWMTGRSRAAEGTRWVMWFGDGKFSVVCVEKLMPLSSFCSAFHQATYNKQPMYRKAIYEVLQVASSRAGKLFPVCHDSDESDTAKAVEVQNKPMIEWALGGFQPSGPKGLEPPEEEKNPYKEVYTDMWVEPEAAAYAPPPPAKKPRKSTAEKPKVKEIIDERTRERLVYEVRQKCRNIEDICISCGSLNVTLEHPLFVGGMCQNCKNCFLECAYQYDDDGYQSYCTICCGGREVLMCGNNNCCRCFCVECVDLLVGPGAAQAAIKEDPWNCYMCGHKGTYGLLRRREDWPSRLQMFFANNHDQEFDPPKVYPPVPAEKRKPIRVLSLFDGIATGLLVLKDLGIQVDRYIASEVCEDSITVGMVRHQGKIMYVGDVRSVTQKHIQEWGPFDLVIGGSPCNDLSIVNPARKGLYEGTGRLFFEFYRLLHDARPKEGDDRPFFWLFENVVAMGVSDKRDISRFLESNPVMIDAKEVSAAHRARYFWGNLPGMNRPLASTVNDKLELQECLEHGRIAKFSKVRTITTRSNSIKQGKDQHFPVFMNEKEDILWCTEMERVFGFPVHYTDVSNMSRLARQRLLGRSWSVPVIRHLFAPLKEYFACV

DNA (cytosine-5)-methyltransferase 1, sequence (P26358 whole entry): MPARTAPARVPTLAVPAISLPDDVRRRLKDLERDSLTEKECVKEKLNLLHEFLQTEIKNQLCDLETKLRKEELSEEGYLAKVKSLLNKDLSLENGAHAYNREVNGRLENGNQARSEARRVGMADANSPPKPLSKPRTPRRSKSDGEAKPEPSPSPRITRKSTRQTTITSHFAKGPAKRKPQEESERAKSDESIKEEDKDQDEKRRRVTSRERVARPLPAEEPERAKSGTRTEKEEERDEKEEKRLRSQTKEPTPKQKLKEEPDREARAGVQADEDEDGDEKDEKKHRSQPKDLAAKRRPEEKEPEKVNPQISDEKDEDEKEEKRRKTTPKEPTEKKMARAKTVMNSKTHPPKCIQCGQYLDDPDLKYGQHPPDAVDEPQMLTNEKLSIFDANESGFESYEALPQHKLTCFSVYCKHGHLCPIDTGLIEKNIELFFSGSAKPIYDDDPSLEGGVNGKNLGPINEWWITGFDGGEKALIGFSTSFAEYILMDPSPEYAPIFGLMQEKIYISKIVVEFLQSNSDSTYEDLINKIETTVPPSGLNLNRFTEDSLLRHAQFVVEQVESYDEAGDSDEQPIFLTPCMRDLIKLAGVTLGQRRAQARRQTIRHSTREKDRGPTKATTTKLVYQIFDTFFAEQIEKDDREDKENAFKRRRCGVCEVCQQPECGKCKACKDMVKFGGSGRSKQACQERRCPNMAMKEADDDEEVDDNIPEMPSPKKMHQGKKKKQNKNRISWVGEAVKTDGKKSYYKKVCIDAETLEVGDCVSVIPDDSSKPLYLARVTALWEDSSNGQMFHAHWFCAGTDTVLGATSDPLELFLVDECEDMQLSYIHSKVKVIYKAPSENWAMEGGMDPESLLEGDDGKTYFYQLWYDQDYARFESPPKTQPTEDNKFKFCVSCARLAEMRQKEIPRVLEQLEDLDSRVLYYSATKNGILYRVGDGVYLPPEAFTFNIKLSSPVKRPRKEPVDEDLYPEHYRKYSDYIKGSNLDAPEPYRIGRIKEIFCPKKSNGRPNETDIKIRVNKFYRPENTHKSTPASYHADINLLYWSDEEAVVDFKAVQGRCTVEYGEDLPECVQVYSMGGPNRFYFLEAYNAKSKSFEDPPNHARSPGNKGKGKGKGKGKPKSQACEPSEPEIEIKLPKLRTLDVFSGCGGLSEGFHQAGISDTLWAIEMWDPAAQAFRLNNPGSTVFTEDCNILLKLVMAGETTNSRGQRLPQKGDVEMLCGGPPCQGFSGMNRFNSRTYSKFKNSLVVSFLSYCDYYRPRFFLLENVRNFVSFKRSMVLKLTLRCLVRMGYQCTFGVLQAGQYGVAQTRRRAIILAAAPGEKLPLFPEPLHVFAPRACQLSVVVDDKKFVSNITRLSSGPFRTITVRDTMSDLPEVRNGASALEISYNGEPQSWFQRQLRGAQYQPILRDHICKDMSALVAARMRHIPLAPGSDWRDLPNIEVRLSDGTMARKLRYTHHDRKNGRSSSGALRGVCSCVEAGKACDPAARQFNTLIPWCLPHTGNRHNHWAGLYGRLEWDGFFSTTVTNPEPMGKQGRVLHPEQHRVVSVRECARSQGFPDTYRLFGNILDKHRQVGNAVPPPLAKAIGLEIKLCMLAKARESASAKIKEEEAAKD

Row | Structure (SMILES) | IC50 [1] | inhibition [2] | IC50 [3] | inhibition [4] | inhibition [5] | inhibition [6]
1 | CC(C)N1CCC(Nc2nc(N3CCCCC3)nc3c2ncn3CCCN2CCCC2)CC1 | > 100 µM | 7.6% | > 100 µM | 12% | 9.9% | 4.3%
2 | CC(C)N1CCC(Nc2nc(N3CCOCC3)nc3c2ccn3CCCN2CCCC2)CC1 | > 100 µM | -1.4% | 40.9 µM | 6.7% | -9.7% | 2.6%
3 | CN1CCC(Nc2nc(-c3ccc(F)nc3)nc3c2ccn3CCCN2CCOCC2)CC1 | 6.84 µM | 11% | 10.6 µM | 17% | 0.2% | 16%
4 | CN1CCN(c2cc(NCC3CCN(C(=O)OC(C)(C)C)CC3)c3cnn(CCCN4CCOCC4)c3c2)CC1 | 23.9 µM | 10% | 22.1 µM | 98% | 31% | 19%
5 | CN1CCC(Nc2nc(N3CCN(C)CC3)nc3c2ccn3CCCN2CCOCC2)CC1 | 58.6 µM | 12% | 23.8 µM | 25% | 16% | 9.5%
6 | CN1CCC(Nc2nc(N3CCCCC3)nc3c2ccn3CCCN2CCOCC2)CC1 | 41 µM | 12% | 24 µM | 21% | -0.3% | 3.7%
7 | CN1CCN(c2cc(NCC3CCN(C(=O)C4CCCC4)CC3)c3cnn(CCCN4CCOCC4)c3c2)CC1 | – | – | 8.67 µM | – | – | –
8 | CC(C)N1CCC(Nc2nc(N3CCCCC3)nc3c2ccn3CCCN2CCCC2)CC1 | 14.5 µM | 6.5% | 12.3 µM | 13% | 11% | 0.8%
9 | CN1CCC(Nc2nc(N3CCOCC3)nc3c2ccn3CCCN2CCCC2)CC1 | > 100 µM | 7.2% | 25.9 µM | 25% | 15% | -1.8%
10 | CN1CCC(Nc2nc(N3CCCC3)nc3c2ccn3CCCN2CCCC2)CC1 | 46.3 µM | 1.3% | 11 µM | 25% | – | 4.2%

The next compounds have a lower IC50 [3] than those just listed; values first:

Row | IC50 [1] | inhibition [2] | IC50 [3] | inhibition [4] | inhibition [5] | inhibition [6] | Structure (SMILES)
11 | 0.98 µM | – | 1.16 µM | 42% | 1.1% | 9.7% | CN1CCC(Nc2nc(-c3ccc(C(F)(F)F)cc3)nc3c2ccn3CCCN2CCCC2)CC1
12 | 1.07 µM | – | 1.21 µM | 32% | 9.1% | 6.8% | CC(C)(C)OC(=O)N1CCC(CNc2cc(-c3ccc(F)cc3)cc3c2cnn3CCCN2CCCC2)CC1
13 | 14.2 µM | – | 8.25 µM | 17% | – | -6.9% | CC(C)N1CCC(Nc2nc(N3CCN(C)CC3)nc3c2ncn3CCCN2CCCC2)CC1
14 | 3.21 µM | 12% | 1.06 µM | 1.6% | 11% | 17% | Cc1ccc(-c2cc(NCC3CCN(C(=O)OC(C)(C)C)CC3)c3cnn(CCCN4CCCC4)c3c2)o1
15 | 1.59 µM | 14% | 1 µM | 61% | – | 25% | Cc1ccc(-c2cc(NCC3CCN(Cc4ccccc4)CC3)c3cnn(CCCN4CCCC4)c3c2)o1
16 | 15.6 µM | 3.6% | 2.87 µM | 20% | 4.3% | 6.6% | CC(C)N1CCC(Nc2nc(N3CCN(C)CC3)nc3c2ccn3CCCN2CCCC2)CC1
17 | 1.02 µM | – | 1.44 µM | 48% | 1.2% | 24% | COc1ccc(-c2cc(NCC3CCN(Cc4ccccc4)CC3)c3cnn(CCCN4CCCC4)c3c2)cc1
18 | 8.91 µM | 22% | 2.33 µM | 41% | – | 20% | Cc1ccc(-c2cc(NCC3CCNCC3)c3cnn(CCCN4CCCC4)c3c2)o1
